Assay [1] can be described thus: Inhibition of recombinant SARS-CoV-2 MPro overexpressed in Escherichia coli assessed as inhibition constant using VNSTLQISGLRLys(Dabcyl) as substrate by FRET assay. More on the design: species or system Severe acute respiratory syndrome coronavirus 2.
In assay [2] the test system is Severe acute respiratory syndrome coronavirus 2. Put plainly: Inhibition of recombinant SARS-CoV-2 MPro overexpressed in Escherichia coli assessed as inhibition constant using VNSTLQISGLRLys(Dabcyl) as substrate at 10 uM by FRET assay relative to control.

Bounds are passed on as bounds.

These results are taken from ChEMBL document CHEMBL6177963, “Development of acylhydrazone linked thiazoles as non-covalent dual inhibitors of SARS-CoV-2 proteases” (Eur J Med Chem, 2025).

A word on the Ki: it is a measure of affinity in units of concentration, obtained from inhibition or displacement. Usually inhibition stands for the share of the control response that was lost under treatment. As for `CCOC(=O)c1sc(NNC(=O)c2ccccc2)nc1C`, in assay [1], the Ki entry was “Not_active”. In addition, in assay [2], the inhibition is below 50%.

`Cc1ccc(C(=O)NNc2nc(-c3ccc(C)cc3)cs2)cc1`: the Ki result in assay [1] was “Not_active”. In addition, the inhibition in assay [2] was below 50%.

For the compound `O=C(NNc1nc(-c2ccc(Br)cc2)cs1)c1ccc([N+](=O)[O-])cc1`, the Ki entry in assay [1] was “Not_active”. Also, the inhibition in assay [2] was below 50%.

As to `Cc1ccc(C(=O)NNc2nc(-c3ccc(Cl)cc3)cs2)cc1`, in assay [1] (read-out: Ki), the Ki stood at 9.37 µM.

For the compound `O=C(NNc1nc(-c2ccc(Br)cc2)cs1)c1ccccc1`, the Ki result in assay [1] is “Not_active”. In addition, in assay [2], the inhibition is below 50%.

With `COC(=O)c1sc(NNC(=O)c2ccc([N+](=O)[O-])cc2)nc1C`, the Ki result in assay [1] is on record as “Not_active”. Moreover, the inhibition in assay [2] was below 50%.

Take `CCOC(=O)c1sc(NNC(=O)c2ccc3ccccc3c2)nc1C`: the Ki entry in assay [1] is “Not_active”. In addition, the inhibition in assay [2] was below 50%.

Take `Cc1ccc(-c2csc(NNC(=O)c3ccc([N+](=O)[O-])cc3)n2)cc1`: the Ki in assay [1] (read-out: Ki) turned out to be 44.7 µM.

With `CCOC(=O)c1sc(NNC(=O)c2ccc(C)cc2)nc1C`, the Ki entry in assay [1] is reported as “Not_active”. Also, the inhibition in assay [2] is below 50%.

Turning to `Cc1ccc(-c2csc(NNC(=O)c3ccc(Cl)cc3)n2)cc1`, the Ki entry in assay [1] is “Not_active”. In assay [2], the inhibition was below 50%.

As to `CCOC(=O)c1sc(NNC(=O)/C=C/c2ccccc2)nc1C`, in assay [1] (read-out: Ki), the Ki was 1.1 µM.

As to `CCOC(=O)c1sc(NNC(=O)c2cccs2)nc1C`, the Ki in assay [1] (read-out: Ki) was found to be 2.4 µM.

Take `CCOC(=O)c1sc(NNC(=O)c2ccc(Cl)cc2)nc1C`: the Ki in assay [1] (read-out: Ki) worked out at 14.9 µM.

Take `Clc1nc2ccccc2cc1/C=N/Nc1nc(-c2ccccc2)cs1`: the Ki result in assay [1] is listed as “Not_active”. Further, the inhibition in assay [2] is below 50%.

Take `O=C(NNc1nc(-c2ccc(Br)cc2)cs1)c1ccc(Cl)cc1`: the Ki result in assay [1] was “Not_active”. The inhibition in assay [2] is below 50%.

Turning to `O=c1c2ccccc2[se]n1-c1ccccc1` [EBSELEN], the Ki in assay [1] (read-out: Ki) is 0.486 µM.

Consider `CCOC(=O)c1sc(N/N=C/c2cc3ccccc3nc2Cl)nc1C`, for which, in assay [1], the Ki entry is recorded as “Not_active”.

With `Oc1ccc(/C=N/Nc2nc(-c3ccc(Cl)cc3)cs2)cc1`, in assay [1] (read-out: Ki), the Ki was determined as 18.8 µM.

Consider `O=C(NNc1nc(-c2ccc(Br)cc2)cs1)c1ccc(F)cc1`, for which, in assay [1] (read-out: Ki), the Ki turned out to be 4.28 µM.

Regarding `Cc1ccc(C(=O)NNc2nc(-c3ccc(Br)cc3)cs2)cc1`, the Ki result in assay [1] was “Not_active”. Moreover, the inhibition in assay [2] was below 50%.

As for `CCOC(=O)c1sc(NNC(=O)c2ccccc2OC)nc1C`, the Ki result in assay [1] was “Not_active”. Further, in assay [2], the inhibition is below 50%.

`CCOC(=O)c1sc(NNC(=O)c2cccc(Cl)c2)nc1C`: in assay [1], the Ki entry is on record as “Not_active”. For the same compound, the inhibition in assay [2] is below 50%.

With `O=C(NNc1nc(-c2ccc(Br)cc2)cs1)c1ccc(Br)cc1`, the Ki result in assay [1] is “Not_active”. Also, the inhibition in assay [2] is below 50%.

`CCOC(=O)c1sc(NNC(=O)c2ccc(F)cc2)nc1C`: in assay [1], the Ki entry is reported as “Not_active”. Further, the inhibition in assay [2] is below 50%.

Take `CCOC(=O)c1sc(NNC(=O)c2ccc(Br)cc2)nc1C`: the Ki in assay [1] (read-out: Ki) came to 4.58 µM.

For `Cc1ccc(-c2csc(NNC(=O)c3ccc(F)cc3)n2)cc1`, the Ki in assay [1] (read-out: Ki) was determined as 11.1 µM.

With `O=C(NNc1nc(-c2ccc(Cl)cc2)cs1)c1ccc(Br)cc1`, the Ki result in assay [1] is “Not_active”. Moreover, the inhibition in assay [2] was below 50%.

`O=C(NNc1nc(-c2ccc(Cl)cc2)cs1)c1ccc(Cl)cc1`: in assay [1] (read-out: Ki), the Ki amounted to 13.4 µM.

As for `O=C(NNc1ncc(-c2ccc(Cl)cc2)s1)c1cccc(Cl)c1`, the Ki entry in assay [1] is on record as “Not_active”. For the same compound, in assay [2], the inhibition was below 50%.

Turning to `CCOC(=O)c1sc(NNC(=O)c2ccccc2C)nc1C`, the Ki entry in assay [1] was “Not_active”. For the same compound, the inhibition in assay [2] is below 50%.

As to `O=C(NNc1ncc(-c2ccc(Cl)cc2)s1)c1ccc2ccccc2c1`, the Ki result in assay [1] is given as “Not_active”. The inhibition in assay [2] is below 50%.

On to `CCOC(=O)c1sc(NNC(=O)c2cccc(Br)c2)nc1C`, for which the Ki result in assay [1] is “Not_active”. Moreover, the inhibition in assay [2] is below 50%.

On to `Cc1ccc(-c2csc(NNC(=O)c3ccc(Br)cc3)n2)cc1`, for which the Ki result in assay [1] was “Not_active”. Further, the inhibition in assay [2] is below 50%.

For `CCOC(=O)c1sc(NNC(=O)c2ccco2)nc1C`, in assay [1], the Ki entry is recorded as “Not_active”. Besides, in assay [2], the inhibition is below 50%.

Take `O=C(NNc1nc(-c2ccc(Cl)cc2)cs1)c1ccc(F)cc1`: in assay [1] (read-out: Ki), the Ki was determined as 10.6 µM.

Turning to `CCOC(=O)c1sc(NNC(=O)c2ccc([N+](=O)[O-])cc2)nc1C`, in assay [1] (read-out: Ki), the Ki amounted to 0.73 µM.
